Assay results taken from patent publication US9745328B2, “Flap modulators” (JANSSEN PHARMACEUTICA NV, priority 2013, dated 2017).
pKi: −log10 of the molar value. Counter-ions that a name gives are not always drawn.

Target: human FLAP (Homo sapiens (Human), UniProt P20292)
Assay: FLAP binding assay (HTRF format)
Settings: Table 5, human FLAP wild type
Method in brief: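 Binding values are averages from two separate assay plates, with each sample run in duplicate per plate. Data are expressed as an HTRF ratio.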

human FLAP, sequence (P20292 whole entry): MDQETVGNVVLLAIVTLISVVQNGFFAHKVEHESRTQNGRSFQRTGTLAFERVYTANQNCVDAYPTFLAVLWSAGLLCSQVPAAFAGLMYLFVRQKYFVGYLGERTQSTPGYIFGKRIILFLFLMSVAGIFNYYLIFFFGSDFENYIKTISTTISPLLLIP

pKi | SMILES
6.97 | Nc1cnc(-c2ccc(-c3cccnc3S(=O)(=O)C3CCNC3)cc2F)cn1 (racemic) [Example 803, 5-(2-Fluoro-4-(2-(pyrrolidin-3-ylsulfonyl)pyridin-3-yl)phenyl)pyrazin-2-amine hydrochloride]

Same assay, conditions: Table 6 (additional runs), human FLAP wild type

pKi | SMILES
9.30 | Nc1cnc(-c2ccc(-c3ccccc3S(=O)(=O)Nc3ccc(C(F)(F)F)nc3)cc2F)cn1 [Example 163, 4′-(5-Aminopyrazin-2-yl)-3′-fluoro-N-[6-(trifluoromethyl)pyridin-3-yl]biphenyl-2-sulfonamide]
7.20 | Nc1cnc(-c2ccc(-c3ccccc3S(=O)(=O)N3CCC(N)CC3)cc2F)cn1 [Example 65, 5-{2′-[(4-Aminopiperidin-1-yl)sulfonyl]-3-fluorobiphenyl-4-yl}pyrazin-2-amine]
8.17 | Nc1cnc(-c2ccc(-c3ccccc3NS(=O)(=O)N3CCCC3)cc2F)cn1 [Example 181, N-[4′-(5-Aminopyrazin-2-yl)-3′-fluorobiphenyl-2-yl]pyrroildine-1-sulfonamide]
7.95 | CNS(=O)(=O)c1ccccc1-c1ccc(-c2cnc(N)cn2)c(F)c1 [Example 15, 4′-(5-Aminopyrazin-2-yl)-3′-fluoro-N-methylbiphenyl-2-sulfonamide]
8.85 | CC1(NS(=O)(=O)c2ccccc2-c2ccc(-c3ccc(N)nc3)c(F)c2)CCC1 [Example 353, 4′-(6-aminopyridin-3-yl)-3′-fluoro-N-(1-methylcyclobutyl)-[1,1′-biphenyl]-2-sulfonamide]
7.51 | CC(C)CS(=O)(=O)c1ccccc1-c1ccc(-c2cnc(N)cn2)c(F)c1 [Example 193, 5-{3-Fluoro-2′-[(2-methylpropyl)sulfonyyl]iphenyl-4-yl}pyrazin-2-amine]
7.09 | Nc1ncc(-c2ccc(-c3ccccc3S(=O)(=O)N3CCCC3)cc2F)cn1 [Example 298, 5-[3-Fluoro-2′-(pyrrolidin-1-ylsulfonyl)biphenyl-4-yl]pyrimidin-2-amine trifluoroacetic acid salt]
7.97 | Nc1cnc(-c2ccc(-c3ccccc3NS(=O)(=O)C(F)(F)F)cc2F)cn1 [Example 41, N-[4′-(5-Aminopyrazin-2-yl)-3′-fluorobiphenyl-2-yl]-1,1,1-trifluoromethanesulfonamide]
8.72 | Nc1cnc(-c2ccc(-c3ccccc3S(=O)(=O)N3CCCC(CCO)C3)cc2F)cn1 (racemic) [Example 71, racemic 2-(1-{[4′-(5-Aminopyrazin-2-yl)-3′-fluorobiphenyl-2-yl]sulfonyl}piperidin-3-yl)ethanol]
9.15 | Nc1cnc(-c2ccc(-c3ccccc3S(=O)(=O)N[C@@H](CO)[C@@H](O)c3ccccc3)cc2F)cn1 [Example 78, 4′-(5-Aminopyrazin-2-yl)-3′-fluoro-N-[(1S,2S)-2-hydroxy-1-(hydroxymethyl)-2-phenylethyl]biphenyl-2-sulfonamide]
8.41 | Nc1cnc(-c2ccc(-c3ccccc3S(=O)(=O)NCCCO)cc2F)cn1 [Example 80, 4′-(5-Aminopyrazin-2-yl)-3′-fluoro-N-(3-hydroxypropyl)biphenyl-2-sulfonamide]
8.92 | CC(C)(NS(=O)(=O)c1ccccc1-c1ccc(-c2cnc(N)cn2)c(F)c1)C(F)(F)F [Example 13, 4′-(5-4minopyrazin-2-yl)-3′-fluoro-N-(2,2,2-trifluoro-1,1-dimethylethyl)biphenyl-2-sulfonamide]
8.35 | C[C@H](NS(=O)(=O)c1ccccc1-c1ccc(-c2cnc(N)nc2)c(F)c1)C(=O)OC(C)(C)C [Example 307, tert-Butyl N-{[4′-(2-aminopyrimidin-5-yl)-3′-fluorobiphenyl-2-yl]sulfonyl}-L-alaninate]
8.06 | CS(=O)(=O)N1CCN(S(=O)(=O)c2ccccc2-c2ccc(-c3cnc(N)cn3)c(F)c2)CC1 [Example 56, 5-(3-Fluoro-2′-{[4-(methylsulfonyl)piperazin-1-yl]sulfonyl}biphenyl-4-yl)pyrazin-2-amine]
8.74 | CC(C)(C)NS(=O)(=O)c1ccccc1-c1ccc(-c2ccc(N)nc2)c(F)c1 [Example 342]
9.10 | CC(C)CNS(=O)(=O)c1ccccc1-c1ccc(-c2cnc(N)cn2)c(F)c1 [Example 7, 4′-(5-Aminopyrazin-2-yl)-3′-fluoro-N-(2-methylpropyl)biphenyl-2-sulfonamide]
8.48 | Nc1cnc(-c2ccc(-c3ccccc3Sc3cnccn3)cc2F)cn1 [Example 218, 5-[3-Fluoro-2′-(pyrazin-2-ylsulfanyl)biphenyl-4-yl]pyrazin-2′ amine hydrochloride]
8.37 | Nc1ccc(-c2ccc(-c3ccccc3S(=O)(=O)N3CCC(CCO)CC3)cc2F)cn1 [Example 359]
7.58 | Nc1cnc(-c2ccc(-c3ccccc3S(=O)(=O)N3CCNC(=O)C3)cc2F)cn1 [Example 66, 4-{1,4′-(5-Aminopyrazin-2-yl)-3′-fluorobiphenyl-2-ylisulfonyl}piperazin-2-one]
8.60 | CC(C)[C@@H](CO)NS(=O)(=O)c1ccccc1-c1ccc(-c2cnc(N)cn2)c(F)c1 [Example 148, (S)-4′-(5-aminopyrazin-2-yl)-3′-fluoro-N-(1-hydroxy-3-methylbutan-2-yl)-[1,1′-biphenyl]-2-sulfonamide]
8.19 | Nc1cnc(-c2ccc(-c3ccccc3S(=O)(=O)N3CCOCC3)cc2F)cn1 [Example 44, 5-[3-Fluoro-2′-(morpholin-4-ylsulfonyl)biphenyl-4-yl]pyrazin-2-amine]
6.45 | CS(=O)(=O)c1ccccc1-c1ccc(-c2cnc(N)cn2)c(F)c1 [Example 1, 5-(3-Fluoro-2′-(methylsulfonyl)-[1,1′-biphenyl]-4-yl)pyrazin-2-amine]
8.62 | Nc1cnc(-c2ccc(-c3ccccc3S(=O)(=O)NCCCCCO)cc2F)cn1 [Example 132, 4′-(5-Aminopyrazin-2-yl)-3′-fluoro-N-(5-hydroxypentyl)biphenyl-2-sulfonamide]
8.49 | CC(C)(C)OC(=O)NC1CCCN(S(=O)(=O)c2ccccc2-c2ccc(-c3cnc(N)cn3)c(F)c2)C1 (racemic) [Example 77, racemic tert-Butyl (1-{[4′-(5-aminopyrazin-2-yl)-3′-fluorobiphenyl-2-yl]sulfonyl}piperidin-3-yl)carbamate]
7.05 | N#CC1CN(S(=O)(=O)c2ccccc2-c2ccc(-c3cnc(N)nc3)c(F)c2)C1 [Example 314, 1-((4′-(2-aminopyrimidin-5-yl)-3′-fluoro-[1,1′-biphenyl]-2-yl)sulfonyl)azetidine-3-carbonitrile]
8.92 | C[C@@H](CO)NS(=O)(=O)c1ccccc1-c1ccc(-c2cnc3[nH]ccc3c2)c(F)c1 [Example 362, 3′-Fluoro-N-[(1S)-2-hydroxy-1-methylethyl]-4′-(1H-pyrrolo[2,3-b]pyridin-5-yl)biphenyl-2-sulfonamide]
6.70 | CN1CCN([C@H]2CN(S(=O)(=O)c3ccccc3-c3ccc(-c4cnc(N)cn4)c(F)c3)C[C@@H]2O)CC1 (stereo in doubt) [Example 188, (3S,4S)-1-{[4′-(5-Aminopyrazin-2-yl)-3′-fluorobiphenyl-2-yl]sulfonyl}-4-(4-methylpiperazin-1-yl)pyrrolidin-3-ol]
7.57 | CC(C)(O)CNS(=O)(=O)c1ccccc1-c1ccc(-c2cnc(N)nc2)c(F)c1 [Example 272, 4′-(2-Aminopyrimidin-5-y)-3′-fluoro-N-(2-hydroxy-2-methylpropyl)biphenyl-2-sulfonamide trifluoroacetic acid salt]

Same assay, conditions: human FLAP wild type, Table 6 (additional runs)

pKi | SMILES
8.43 | CC(CO)NS(=O)(=O)c1ccccc1-c1ccc(-c2cnc(N)c(C#N)n2)c(F)c1 (stereo in doubt) [Example 410, 4′-(5-amino-6-cyanopyrazin-2-yl)-3′-fluoro-N-[(1R)-2-hydroxy-1-methylethypiphenyl-2-sulfonamide]
~6.45 | CC(=O)c1ccccc1-c1ccc(-c2cnc(N)cn2)c(F)c1 [Example 483, 1-[4′-(5-Aminopyrazin-2-yl)-3′-fluorobiphenyl-2-yl]ethanone]
8.07 | N#Cc1cccnc1COc1ccccc1-c1ccc(-c2cnc(N)cn2)c(F)c1 [Example 531, 2-({[4′-(5-Aminopyrazin-2-yl)-3′-fluorobiphenyl-2-yl]oxy}methyl)pyridine-3-carbonitrile]
9.15 | Nc1cnc(-c2ccc(-c3ccc(C(F)(F)F)cc3Oc3nccc(N)n3)cc2F)cn1 [Example 556, 2-{[4′-(5-Aminopyrazin-2-yl)-3′-fluoro-4-(trifluoromethyl)biphenyl-2-yl]oxy}pyrimidin-4-amine]
6.97 | Nc1cnc(-c2ccc(-c3cccnc3S(=O)(=O)C3CCNC3)cc2F)cn1 (racemic) [Example 803, 5-(2-Fluoro-4-(2-(pyrrolidin-3-ylsulfonyl)pyridin-3-yl)phenyl)pyrazin-2-amine hydrochloride]
6.48 | Nc1cnc(-c2ccc(-c3ccccc3F)cc2F)cn1 [Example 468, 5-(2′,3-Difluorobiphenyl-4-yl)pyrazin-2-amine]
7.23 | C[C@H](NS(=O)(=O)c1ccccc1-c1ccc(-c2cnc(N)nc2)nc1)C(F)(F)F [Example 685, 2-[6-(2-Aminopyrimidin-5-yl)pyridin-3-yl]-N-[(1S)-2,2,2-trifluoro-1-methylethyl]benzenesulfonamide trifluoroacetic acid salt]
7.25 | Nc1cnc(-c2ccc(-c3ccc(C(F)(F)F)cc3F)cc2F)cn1 [Example 471, 5-[2′,3-Difiuoro-4′-(trifluoromethyl)biphenyl-4-yl]pyrazin-2-amine]
5.72 | Nc1cnc(-c2ccc(-c3ccccc3OCC(=O)O)cc2F)cn1 [Example 481, {[4′-(5-Aminopyrazin-2-yl)-3′-fluorobiphenyl-2-yl]oxy}acetic acid]
9.05 | CC(C)(C)NS(=O)(=O)c1ccccc1-c1ccc(-c2cnc(N)c(Br)n2)c(F)c1 [Example 442, 4′-(5-Amino-6-bromopyrazin-2-yl)-N-tert-butyl-3′-fluorobiphenyl-2-sulfonamide]
7.69 | N#Cc1cc(Oc2ccccc2-c2ccc(-c3cnc(N)nc3)c(F)c2)ccn1 [Example 538, 4-{[4′-(2-Aminopyrimidin-5-yl)-3′-fluorobiphenyl-2-yl]oxy}pyridine-2-carbonitrile]
7.85 | Fc1cc(-c2cccnc2OCC2CC2)ccc1-c1cnc2[nH]ccc2n1 [Example 400, 2-{4-[2-(Cyclopropylmethoxy)pyridin-3-yl]-2-fluorophenyl}-5H-pyrrolo[2,3-b]pyrazine]
